Reference: patent publication US6737383B1, “Herbicidal oxadiazolidines” (priority 1999, dated 2004)

Tests used:
bedstraw = test: Test B pre/postemergence bedstraw; assay type: in vivo, Galium aparine
Summary of the method: (§1)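 Test chemicals in a non-phytotoxic solvent mixture with surfactant were sprayed preemergence onto planted seeds and postemergence onto plants 2 to 18 cm tall (1- to 4-leaf stage). After twelve to sixteen days in a greenhouse, injury was visually rated against untreated controls from 0 (no effect) to 10 (complete control).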

blackgrass = test: Test B pre/postemergence blackgrass; assay type: in vivo, Alopecurus myosuroides
Summary of the method: as §1

surinam grass = test: Test B pre/postemergence surinam grass; assay type: in vivo, Brachiaria decumbens
Summary of the method: as §1

cocklebur = test: Test B pre/postemergence cocklebur; assay type: in vivo, Xanthium strumarium
Summary of the method: as §1

corn = test: Test B pre/postemergence corn; assay type: in vivo, Zea mays
Summary of the method: as §1

crabgrass = test: Test B pre/postemergence crabgrass; assay type: in vivo, Digitaria sanguinalis
Summary of the method: as §1

giant foxtail = test: Test B pre/postemergence giant foxtail; assay type: in vivo, Setaria faberii
Summary of the method: as §1

morningglory = test: Test B pre/postemergence morningglory; assay type: in vivo, Ipomoea hederacea
Summary of the method: as §1

pigweed = test: Test B pre/postemergence pigweed; assay type: in vivo, Amaranthus retroflexus
Summary of the method: as §1

rape = test: Test B pre/postemergence rape; assay type: in vivo, Brassica napus
Summary of the method: as §1

soybean = test: Test B pre/postemergence soybean; assay type: in vivo, Glycine max
Summary of the method: as §1

sugar beet = test: Test B pre/postemergence sugar beet; assay type: in vivo, Beta vulgaris
Summary of the method: as §1

velvetleaf = test: Test B pre/postemergence velvetleaf; assay type: in vivo, Abutilon theophrasti
Summary of the method: as §1

wheat = test: Test B pre/postemergence wheat; assay type: in vivo, Triticum aestivum
Summary of the method: as §1

wild oat = test: Test B pre/postemergence wild oat; assay type: in vivo, Avena fatua
Summary of the method: as §1

purple nutsedge = test: Test B pre/postemergence purple nutsedge; assay type: in vivo, Cyperus rotundus
Summary of the method: as §1

[1] = Postemergence, Rate 62 g/ha, scale of 0 to 10, 0 is no effect, 10 is complete control
[2] = Postemergence, Rate 125 g/ha, scale 0 to 10, 0 is no effect, 10 is complete control
[3] = Postemergence, Rate 500 g/ha, scale 0 to 10, 0 is no effect, 10 is complete control
[4] = Preemergence, Rate 62 g/ha, scale of 0 to 10 where 0 is no effect and 10 is complete control
[5] = Preemergence, Rate 125 g/ha, scale 0 to 10, 0 is no effect, 10 is complete control
[6] = Preemergence, Rate 500 g/ha, scale 0 to 10, 0 is no effect, 10 is complete control
[7] = Rate 250 g/ha, Postemergence, scale of 0 to 10 where 0 is no effect and 10 is complete control
[8] = Preemergence, Rate 500 g/ha, scale of 0 to 10 where 0 is no effect and 10 is complete control

With `CC(C)N(C(=O)n1oc(=O)n(CCCCF)c1=O)c1ccc(F)cc1F` [Compound 522] the “Bedstraw plant response rating” value (bedstraw; [1]) was 0, the “Bedstraw plant response rating” value (bedstraw; [2]) was 0 and the “Plant response rating, Bedstraw” value (bedstraw; [3]) was 10. The “Plant response rating, Bedstraw” value (bedstraw; [4]) was 10, the “Bedstraw plant response rating” value (bedstraw; [5]) was 10 and the “Bedstraw plant response rating (0 to 10 scale)” value (bedstraw; Preemergence, Rate 250 g/ha) was 10. The “Bedstraw plant response rating” value (bedstraw; [6]) was 10, the “Plant response rating, Bedstraw” value (bedstraw; [7]) was 9 and the “Blackgrass plant response rating” value (blackgrass; [1]) was 8. The “Blackgrass plant response rating” value (blackgrass; [2]) was 8, the “Plant response rating, Blackgrass” value (blackgrass; [3]) was 8 and the “Plant response rating, Blackgrass” value (blackgrass; [4]) was 4. For the same compound, the “Blackgrass plant response rating” value (blackgrass; [5]) was 8, the “Blackgrass plant response rating (0 to 10 scale)” value (blackgrass; Preemergence, Rate 250 g/ha) was 9 and the “Blackgrass plant response rating” value (blackgrass; [8]) was 9. The “Plant response rating, Blackgrass” value (blackgrass; [7]) was 8, the “B. signalgrass plant response rating” value (surinam grass; [1]) was 0 and the “B. signalgrass plant response rating” value (surinam grass; [2]) was 5. The “Plant response rating, B. signalgrass” value (surinam grass; [3]) was 7, the “Plant response rating, B. signalgrass” value (surinam grass; [4]) was 10 and the “B. signalgrass plant response rating” value (surinam grass; [5]) was 9. The “B. signalgrass plant response rating (0 to 10 scale, 0 is no effect, 10 is complete control)” value (surinam grass; Preemergence, Rate 250 g/ha) was 9, the “B. signalgrass plant response rating” value (surinam grass; [6]) was 9 and the “Plant response rating, B. signalgrass” value (surinam grass; [7]) was 7. The “Cocklebur plant response rating” value (cocklebur; [1]) was 0, the “Cocklebur plant response rating” value (cocklebur; [2]) was 3 and the “Plant response rating, Cocklebur” value (cocklebur; [3]) was 3. The “Plant response rating, Cocklebur” value (cocklebur; [4]) was 0, the “Cocklebur plant response rating” value (cocklebur; [5]) was 0 and the “Cocklebur plant response rating (0 to 10 scale)” value (cocklebur; Preemergence, Rate 250 g/ha) was 0. The “Plant response rating, Cocklebur” value (cocklebur; [7]) was 3, the “Corn plant response rating” value (corn; [1]) was 0 and the “Corn plant response rating” value (corn; [2]) was 3. For the same compound, the “Plant response rating, Corn” value (corn; [3]) was 5, the “Plant response rating, Corn” value (corn; [4]) was 2 and the “Corn plant response rating” value (corn; [5]) was 7. For the same compound, the “Corn plant response rating (0 to 10 scale)” value (corn; Preemergence, Rate 250 g/ha) was 7, the “Corn plant response rating” value (corn; [8]) was 9 and the “Plant response rating, Corn” value (corn; [7]) was 3. The “Crabgrass plant response rating” value (crabgrass; [1]) was 8, the “Crabgrass plant response rating” value (crabgrass; [2]) was 8 and the “Plant response rating, Crabgrass” value (crabgrass; [3]) was 9. For the same compound, the “Plant response rating, Crabgrass” value (crabgrass; [4]) was 9, the “Crabgrass plant response rating” value (crabgrass; [5]) was 10 and the “Crabgrass plant response rating (0 to 10 scale)” value (crabgrass; Preemergence, Rate 250 g/ha) was 10. For the same compound, the “Crabgrass plant response rating” value (crabgrass; [8]) was 10, the “Plant response rating, Crabgrass” value (crabgrass; [7]) was 8 and the “Giant foxtail plant response rating” value (giant foxtail; [1]) was 8. For the same compound, the “Giant foxtail plant response rating” value (giant foxtail; [2]) was 8, the “Plant response rating, Giant foxtail” value (giant foxtail; [3]) was 9 and the “Plant response rating, Giant foxtail” value (giant foxtail; [4]) was 10. For the same compound, the “Giant foxtail plant response rating” value (giant foxtail; [5]) was 10, the “Giant foxtail plant response rating (0 to 10 scale)” value (giant foxtail; Preemergence, Rate 250 g/ha) was 10 and the “Giant foxtail plant response rating” value (giant foxtail; [8]) was 10. For the same compound, the “Morningglory plant response rating” value (morningglory; [1]) was 3, the “Morningglory plant response rating” value (morningglory; [2]) was 4 and the “Plant response rating, Morningglory” value (morningglory; [3]) was 5. The “Plant response rating, Morningglory” value (morningglory; [4]) was 0, the “Morningglory plant response rating” value (morningglory; [5]) was 2 and the “Morningglory plant response rating (0 to 10 scale)” value (morningglory; Preemergence, Rate 250 g/ha) was 2. The “Morningglory plant response rating” value (morningglory; [8]) was 4, the “Plant response rating, Morningglory” value (morningglory; [7]) was 4 and the “Redroot pigweed plant response rating” value (pigweed; [1]) was 0. For the same compound, the “Redroot pigweed plant response rating” value (pigweed; [2]) was 4, the “Plant response rating, Redroot pigweed” value (pigweed; [3]) was 9 and the “Plant response rating, Redroot pigweed” value (pigweed; [4]) was 10. The “Redroot pigweed plant response rating” value (pigweed; [5]) was 10, the “Redroot pigweed plant response rating (0 to 10 scale)” value (pigweed; Preemergence, Rate 250 g/ha) was 10 and the “Redroot pigweed plant response rating” value (pigweed; [8]) was 10. For the same compound, the “Plant response rating, Redroot pigweed” value (pigweed; [7]) was 4, the “Rape plant response rating” value (rape; [1]) was 0 and the “Rape plant response rating” value (rape; [2]) was 0. For the same compound, the “Plant response rating, Rape” value (rape; [3]) was 9, the “Plant response rating, Rape” value (rape; [4]) was 0 and the “Rape plant response rating” value (rape; [5]) was 2. For the same compound, the “Rape plant response rating (0 to 10 scale)” value (rape; Preemergence, Rate 250 g/ha) was 4, the “Rape plant response rating” value (rape; [8]) was 6 and the “Plant response rating, Rape” value (rape; [7]) was 0. The “Soybean plant response rating” value (soybean; [1]) was 4, the “Soybean plant response rating” value (soybean; [2]) was 6 and the “Plant response rating, Soybean” value (soybean; [3]) was 6. The “Plant response rating, Soybean” value (soybean; [4]) was 0, the “Soybean plant response rating” value (soybean; [5]) was 0 and the “Soybean plant response rating (0 to 10 scale)” value (soybean; Preemergence, Rate 250 g/ha) was 0. For the same compound, the “Soybean plant response rating” value (soybean; [8]) was 10, the “Sugarbeets plant response rating” value (sugar beet; [1]) was 6 and the “Sugarbeets plant response rating” value (sugar beet; [2]) was 6. For the same compound, the “Plant response rating, Sugarbeets” value (sugar beet; [3]) was 6, the “Plant response rating, Sugarbeets” value (sugar beet; [4]) was 5 and the “Sugarbeets plant response rating” value (sugar beet; [5]) was 5. The “Sugarbeets plant response rating (0 to 10 scale)” value (sugar beet; Preemergence, Rate 250 g/ha) was 5, the “Sugarbeets plant response rating” value (sugar beet; [8]) was 7 and the “Plant response rating, Sugarbeets” value (sugar beet; [7]) was 6. The “Velvetleaf plant response rating” value (velvetleaf; [1]) was 2, the “Velvetleaf plant response rating” value (velvetleaf; [2]) was 5 and the “Plant response rating, Velvetleaf” value (velvetleaf; [3]) was 7. The “Plant response rating, Velvetleaf” value (velvetleaf; [4]) was 2, the “Velvetleaf plant response rating” value (velvetleaf; [5]) was 6 and the “Velvetleaf plant response rating (0 to 10 scale)” value (velvetleaf; Preemergence, Rate 250 g/ha) was 8. The “Velvetleaf plant response rating” value (velvetleaf; [8]) was 9, the “Plant response rating, Velvetleaf” value (velvetleaf; [7]) was 7 and the “Wheat plant response rating” value (wheat; [1]) was 0. For the same compound, the “Wheat plant response rating” value (wheat; [2]) was 0, the “Plant response rating, Wheat” value (wheat; [3]) was 5 and the “Plant response rating, Wheat” value (wheat; [4]) was 0. The “Wheat plant response rating” value (wheat; [5]) was 0, the “Wheat plant response rating (0 to 10 scale)” value (wheat; Preemergence, Rate 250 g/ha) was 2 and the “Wheat plant response rating” value (wheat; [8]) was 8. For the same compound, the “Plant response rating, Wheat” value (wheat; [7]) was 5, the “Wild oats plant response rating” value (wild oat; [1]) was 0 and the “Wild oats plant response rating” value (wild oat; [2]) was 4. The “Plant response rating, Wild oats” value (wild oat; [3]) was 7, the “Plant response rating, Wild oats” value (wild oat; [4]) was 10 and the “Wild oats plant response rating” value (wild oat; [5]) was 2. The “Wild oats plant response rating (0 to 10 scale)” value (wild oat; Preemergence, Rate 250 g/ha) was 4, the “Wild oats plant response rating” value (wild oat; [8]) was 9 and the “Plant response rating, Wild oats” value (wild oat; [7]) was 7. For the same compound, the “Nutsedge plant response rating” value (purple nutsedge; [1]) was 0, the “Nutsedge plant response rating” value (purple nutsedge; [2]) was 0 and the “Plant response rating, Nutsedge” value (purple nutsedge; [3]) was 0. The “Plant response rating, Nutsedge” value (purple nutsedge; [4]) was 0, the “Nutsedge plant response rating” value (purple nutsedge; [5]) was 9 and the “Nutsedge plant response rating (0 to 10 scale)” value (purple nutsedge; Preemergence, Rate 250 g/ha) was 10. The “Nutsedge plant response rating” value (purple nutsedge; [8]) was 10 and the “Plant response rating, Nutsedge” value (purple nutsedge; [7]) was 0.
